Key:
Assay type in all cases: cell-based
[1] = target: Sodium-dependent serotonin transporter (Homo sapiens, UniProt P31645); assay: Inhibition of serotonin reuptake at human serotonin transporter expressed in HEK293 cells after 5 mins by scintillation counting
[2] = target: Sodium-dependent dopamine transporter (Homo sapiens, UniProt Q01959); assay: Inhibition of dopamine reuptake at human dopamine transporter expressed in HEK293 cells after 5 mins by scintillation counting
[3] = target: Sodium-dependent noradrenaline transporter (Homo sapiens, UniProt P23975); assay: Inhibition of noradrenaline reuptake at human noradrenaline transporter expressed in HEK293 cells after 15 mins by scintillation counting
[4] = target: Voltage-gated inwardly rectifying potassium channel KCNH2 (Homo sapiens, UniProt Q12809); assay: Displacement of [3H]dofetilide from human ERG expressed in HEK293 cells
Sequence of Voltage-gated inwardly rectifying potassium channel KCNH2 (Q12809 whole entry): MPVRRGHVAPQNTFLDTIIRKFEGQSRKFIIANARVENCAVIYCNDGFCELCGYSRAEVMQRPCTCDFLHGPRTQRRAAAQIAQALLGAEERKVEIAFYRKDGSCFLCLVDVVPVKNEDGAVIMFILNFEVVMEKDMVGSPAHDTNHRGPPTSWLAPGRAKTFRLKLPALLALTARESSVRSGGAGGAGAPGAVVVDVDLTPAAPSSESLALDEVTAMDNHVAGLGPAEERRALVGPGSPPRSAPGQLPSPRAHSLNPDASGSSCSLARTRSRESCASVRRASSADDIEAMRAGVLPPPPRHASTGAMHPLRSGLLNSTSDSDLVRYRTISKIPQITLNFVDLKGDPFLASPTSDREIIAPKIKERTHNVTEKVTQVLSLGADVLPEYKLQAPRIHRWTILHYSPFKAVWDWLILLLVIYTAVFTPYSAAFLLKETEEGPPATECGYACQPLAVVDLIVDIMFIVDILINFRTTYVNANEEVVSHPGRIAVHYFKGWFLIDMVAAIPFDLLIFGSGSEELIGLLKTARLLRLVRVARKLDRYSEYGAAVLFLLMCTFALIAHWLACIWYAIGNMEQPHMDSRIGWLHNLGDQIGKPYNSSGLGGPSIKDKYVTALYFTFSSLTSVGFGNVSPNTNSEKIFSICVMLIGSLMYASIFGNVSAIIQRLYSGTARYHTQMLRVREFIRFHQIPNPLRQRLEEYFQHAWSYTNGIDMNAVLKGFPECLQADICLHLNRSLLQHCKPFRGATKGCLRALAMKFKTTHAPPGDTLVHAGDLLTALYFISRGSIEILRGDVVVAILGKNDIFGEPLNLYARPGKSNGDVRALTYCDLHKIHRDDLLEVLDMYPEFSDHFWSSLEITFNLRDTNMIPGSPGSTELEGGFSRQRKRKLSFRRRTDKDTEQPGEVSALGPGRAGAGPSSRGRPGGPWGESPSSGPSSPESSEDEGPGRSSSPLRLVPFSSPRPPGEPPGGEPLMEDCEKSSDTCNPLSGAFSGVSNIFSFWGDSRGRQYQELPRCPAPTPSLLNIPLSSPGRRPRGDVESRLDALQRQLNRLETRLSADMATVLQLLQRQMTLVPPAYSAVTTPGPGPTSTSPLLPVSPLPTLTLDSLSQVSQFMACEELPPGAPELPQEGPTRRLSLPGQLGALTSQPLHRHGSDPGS

Sequence of Sodium-dependent noradrenaline transporter (P23975 whole entry): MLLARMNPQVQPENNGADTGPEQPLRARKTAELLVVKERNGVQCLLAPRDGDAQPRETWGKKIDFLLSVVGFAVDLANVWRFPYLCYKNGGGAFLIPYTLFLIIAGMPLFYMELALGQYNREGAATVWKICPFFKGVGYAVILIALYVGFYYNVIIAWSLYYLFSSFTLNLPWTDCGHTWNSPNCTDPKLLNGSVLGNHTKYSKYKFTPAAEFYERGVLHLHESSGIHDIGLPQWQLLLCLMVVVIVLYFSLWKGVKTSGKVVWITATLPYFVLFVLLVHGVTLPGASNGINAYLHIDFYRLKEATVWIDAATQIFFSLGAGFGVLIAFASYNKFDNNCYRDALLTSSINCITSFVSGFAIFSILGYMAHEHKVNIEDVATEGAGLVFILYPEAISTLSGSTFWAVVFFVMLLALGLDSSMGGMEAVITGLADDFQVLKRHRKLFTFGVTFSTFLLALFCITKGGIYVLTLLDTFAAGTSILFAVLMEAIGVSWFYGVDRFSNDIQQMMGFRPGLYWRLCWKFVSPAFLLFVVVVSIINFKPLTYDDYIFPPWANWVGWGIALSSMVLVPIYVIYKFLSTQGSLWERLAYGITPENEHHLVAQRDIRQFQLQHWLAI
Sequence of Sodium-dependent dopamine transporter (Q01959 whole entry): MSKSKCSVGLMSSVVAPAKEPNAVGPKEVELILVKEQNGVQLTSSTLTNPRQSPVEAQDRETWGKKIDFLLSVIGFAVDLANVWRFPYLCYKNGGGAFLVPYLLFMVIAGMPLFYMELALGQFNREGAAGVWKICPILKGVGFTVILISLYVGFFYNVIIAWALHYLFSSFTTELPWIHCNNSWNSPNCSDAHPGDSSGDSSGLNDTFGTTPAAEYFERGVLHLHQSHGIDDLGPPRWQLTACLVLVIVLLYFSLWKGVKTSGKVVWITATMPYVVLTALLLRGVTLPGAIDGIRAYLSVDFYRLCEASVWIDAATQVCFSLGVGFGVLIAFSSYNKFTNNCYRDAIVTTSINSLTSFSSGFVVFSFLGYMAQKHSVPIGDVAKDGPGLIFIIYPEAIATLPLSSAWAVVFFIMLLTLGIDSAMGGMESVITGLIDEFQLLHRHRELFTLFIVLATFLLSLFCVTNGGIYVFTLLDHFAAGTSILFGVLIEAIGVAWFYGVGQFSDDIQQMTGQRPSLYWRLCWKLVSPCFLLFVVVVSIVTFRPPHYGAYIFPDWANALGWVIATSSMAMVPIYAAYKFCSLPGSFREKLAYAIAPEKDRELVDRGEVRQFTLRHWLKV
Sequence of Sodium-dependent serotonin transporter (P31645 whole entry): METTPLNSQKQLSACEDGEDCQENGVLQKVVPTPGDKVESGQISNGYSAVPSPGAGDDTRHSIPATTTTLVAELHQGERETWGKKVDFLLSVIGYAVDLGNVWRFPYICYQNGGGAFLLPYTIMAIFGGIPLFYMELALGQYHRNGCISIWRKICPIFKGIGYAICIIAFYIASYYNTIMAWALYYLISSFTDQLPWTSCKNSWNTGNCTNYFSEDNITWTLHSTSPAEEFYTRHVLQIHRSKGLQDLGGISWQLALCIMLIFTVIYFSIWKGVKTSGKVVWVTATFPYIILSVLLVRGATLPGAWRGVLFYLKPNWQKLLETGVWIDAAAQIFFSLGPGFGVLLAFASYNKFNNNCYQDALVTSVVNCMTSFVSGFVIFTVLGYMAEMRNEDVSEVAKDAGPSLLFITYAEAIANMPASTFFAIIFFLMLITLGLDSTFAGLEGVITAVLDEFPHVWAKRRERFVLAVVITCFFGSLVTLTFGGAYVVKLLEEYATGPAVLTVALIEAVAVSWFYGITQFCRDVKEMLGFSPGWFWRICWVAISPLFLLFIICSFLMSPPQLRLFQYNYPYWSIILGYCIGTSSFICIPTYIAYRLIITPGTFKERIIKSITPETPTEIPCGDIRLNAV

SMILES | IC50 [1] [nM] | IC50 [2] [nM] | IC50 [3] [nM] | Ki [4] [nM]
O=C(NC1CCNCC1)c1ccc2ccccc2c1 | > 400 | – | – | –
CC(C)CN(C(=O)c1ccc2ccccc2c1)[C@@H]1CCNC1 | 5 | – | 1200 | 7000
Cc1c(C(=O)N(CC(C)(C)C)[C@H]2CCNC2)ccc(Cl)c1Cl | 15 | > 28000 | 357 | –
CN(C(=O)c1ccc(Cl)c(Cl)c1)[C@@H]1CCNC1 | > 400 | – | – | –
c1cnc(N(Cc2ccc3ccccc3c2)C2CCNCC2)nc1 | 10 | 1300 | 1200 | –
CCN(C(=O)c1ccc(Cl)c(Cl)c1C)[C@@H]1CCNC1 | 10 | > 40000 | 17400 | –
CCC(=O)N(Cc1ccc2ccccc2c1)C1CCNCC1 | 1 | 339 | 1300 | 12000
CS(=O)(=O)N(Cc1ccc2ccccc2c1)[C@@H]1CCNC1 | 17 | > 68000 | 7000 | 4200
CCCN(C(=O)c1ccc2ccccc2c1)C1CCNCC1 | 28.3 | > 40000 | > 40000 | –
c1ccc2cc(COC3CCNCC3)ccc2c1 [LITOXETINE] | 5.9 | 6700 | 1400 | –

Continued by falling IC50 [1], values first:

IC50 [1] [nM] | IC50 [2] [nM] | IC50 [3] [nM] | SMILES | Ki [4] [nM]
58 | – | – | Cc1c(C(=O)N(C)[C@@H]2CCNC2)ccc(Cl)c1Cl | –
15 | > 14000 | 7500 | CC(C)N(C(=O)c1ccc2ccccc2c1)[C@@H]1CCNC1 | –
12 | 7400 | 677 | O=C(c1ccc2ccccc2c1)N(C1CCCC1)[C@@H]1CCNC1 | –
10 | > 40000 | > 40000 | O=C(c1ccc2ccccc2c1)N(C1CCC1)C1CCNCC1 | > 10000
9 | 5800 | 6000 | O=C(c1ccc2ccccc2c1)N(C1CCC1)[C@@H]1CCNC1 | –
7 | > 40000 | 5700 | Cc1c(C(=O)N(C(C)C)[C@@H]2CCNC2)ccc(Cl)c1Cl | –
5.2 | > 12000 | 726 | CC(=O)N(Cc1ccc2ccccc2c1)[C@@H]1CCNC1 | –
4.6 | > 28000 | 735 | Cc1c(CN([C@@H]2CCNC2)S(C)(=O)=O)ccc2cc(F)ccc12 | 1600
4.5 | 1500 | 8900 | CC(=O)N(Cc1ccc2ccccc2c1)C1CCNCC1 | > 20000
3.5 | 4900 | 2500 | CS(=O)(=O)N(Cc1ccc2ccccc2c1)C1CCNCC1 | 3200
3.5 | 2800 | 370 | CS(=O)(=O)N(Cc1ccc2ccccc2c1)[C@H]1CCNC1 | 11000
3 | 744 | 24 | CC(C)CN(C(=O)c1ccc2ccccc2c1)[C@H]1CCNC1 | –
2.4 | 266 | 224 | CCC(=O)N(Cc1ccc2ccccc2c1)[C@@H]1CCNC1 | –

— ChEMBL document CHEMBL1156048, “Design and optimisation of selective serotonin re-uptake inhibitors with high synthetic accessibility: part 2” (Bioorg Med Chem Lett, 2009)
